# According to the METLIN SMRT retention time set (Domingo-Almenara et al. 2019):
# Assay: gradient 5% acetonitrile 3 min, to 50% in 2 min, to 85% in 15 min, held 3 min, 100 µL/min
# Settings: column: Zorbax Extend-C18 2.1 x 50 mm; eluents: water / acetonitrile, 0.1% formic acid
# Procedure, shortened: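 Data were gathered over 3 months by HPLC coupled to a quadrupole time-of-flight mass spectrometer, operated in positive and negative ionization mode. Mixtures of ~100 pure standards ran on a Zorbax Extend-C18 column (2.1 × 50 mm, 1.8 μm) at 100 μL/min, with water and acetonitrile each containing 0.1% formic acid and dead and dwell volumes of 40 μL and 900 μL. Retention time was read from adduct peaks picked by computer and checked manually.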
row,SMILES,RP-LC retention time [s]
1,O=C(c1ccc(S(=O)(=O)c2ccc(Cl)cc2)s1)N1CCN(c2ccccn2)CC1,702
2,OC[C@@H]1CN(Cc2ccccn2)C[C@H]1c1nc(-c2cccnc2)no1,551
3,CN(C)c1cccc(C(=O)NCC2CCN(C(=O)Oc3ccccc3)CC2)c1,723
4,CN(C)c1nc2ncn3c(=O)n(CC(=O)Nc4cc(F)cc(F)c4)nc3c2s1,741
5,CCN1C(=O)c2ccccc2Oc2ccc(C(=O)NCc3ccccc3OC)cc21,917
6,CN1c2cc(F)ccc2C(=O)NC12CCN(C(=O)c1ccc3c(c1)OCO3)CC2,724
7,CCc1ccc(C2=C(C)C(N3CCC(NC(=O)CCC(C)C)CC3)=NS2(=O)=O)cc1,935
8,CC(C)CNC(=O)N1CCCN(S(C)(=O)=O)CC1,615
9,O=C(NC(Cc1ccccc1)c1nnc(N2CCCCC2)o1)c1ccco1 (centres undefined),775
10,COc1cc(C(=O)NCC(c2cccs2)N2CCOCC2)c([N+](=O)[O-])cc1OC (centres undefined),565
11,COc1ccc(NC(=O)c2ccc3ncsc3c2)c([N+](=O)[O-])c1,800
12,COCCNC(=O)c1nc2cccnc2n(C)c1=O,585
13,CCc1cccc(NC(=O)CN2C(=O)NC3(CCCCC3)C2=O)c1,805
14,Cc1cc(=O)n(CC(=O)Nc2ccc(F)cc2)c(-c2ccc(Cl)cc2)n1,1120
15,COc1ccc(-n2ccn3cc(-c4ccccc4)nc3c2=O)cc1Cl,873
16,O=C(NC1CCCCC1)C1COC2(CCN(C(=O)c3ccco3)CC2)N1C(=O)c1ccccc1 (centres undefined),748
17,O=C(c1ccccc1Cl)N1CCN(Cc2noc3ccccc23)CC1,755
18,CCN(CC)C(=O)c1ccc(-c2nc3cc(NS(=O)(=O)c4ccccc4C)ccc3n2C)cc1,694
19,Cc1ccc(C(=O)N2CCC(COc3ccc(C(=O)NC(C)C)cc3)CC2)s1,888
20,Cc1nnc2cc(N3CCN(C(=O)Nc4cccc(F)c4)CC3)cnn12,624
21,CN1C(=O)Cc2cc(C(=O)NC3CCCC3)ccc21,665
22,O=C1CCN(C(=O)c2cccs2)CCCCCCN1,622

row,SMILES,RP-LC retention time [s]
1,Cc1ccc(NS(=O)(=O)c2cc(-c3[nH]ncc3C(=O)N(C)C)oc2C)cc1C,729
2,CCC(C(=O)NC(C)C)n1nc(C)c2nn(-c3ccccc3)c(C)c2c1=O (centres undefined),831
3,CCOC(=O)c1[nH]c(C)c(CCC(=O)NCc2ccc3c(c2)OCO3)c1C,780
4,Cc1nn(CC(=O)N2CCCC2)c(=O)c2c(-n3cccc3)n(-c3cccc(F)c3)nc12,876
5,Cc1cc(-c2csc(S(=O)(=O)NCC3CCN(Cc4ccc(Cl)cc4)CC3)c2)on1,733
6,O=C(NC1CCCC1)c1c2c(nc3ccccc13)CCC2,637
7,OC[C@H]1O[C@@H](n2cnc3c(NC4CCCCC4)ncnc32)C(O)[C@H]1O (some centres undefined),583
8,CCOc1ccc(-c2ccc(=O)n(Cc3nc(-c4ccc(CC)cc4)no3)n2)cc1,1230
9,Cc1cc(-c2cc(S(=O)(=O)NCCc3ccc(Cl)cc3)c(C)s2)n[nH]1,915
10,COCCn1cc2c3c(cccc31)CN(C(=O)Nc1cc(Cl)ccc1OC)CC2,1070
11,Cc1ccccc1CN1CC(=O)NCC12CCCC2,573
12,Cc1cccc(N2C(=O)CN(CCc3ccccc3)[C@H]3CS(=O)(=O)C[C@H]32)c1,826
13,Cc1[nH]nc(-c2cc(S(=O)(=O)NCCc3ccc(S(N)(=O)=O)cc3)c(C)s2)c1C,699
14,O=C(Cn1cnc2nc(N3CCCC3)ncc2c1=O)Nc1ccc(Cl)cc1C(F)(F)F,782
15,CSc1ccc(CNC(=O)Cn2c(=O)c3cccn3c3ccc(F)cc32)cc1,861
16,Cn1nc(-c2nnc(-c3ccccc3Cl)o2)c2c1CCN(C(=O)COc1ccc(F)cc1)C2,891
17,Cc1cc(-c2csc(Nc3ccc(N(C)C)cc3)n2)ccc1F,767
18,Cc1cnc(C(=O)N2CCC(N3C(=O)C4(CCCC4)C3c3scnc3C)CC2)cn1 (centres undefined),681
19,CN1CCN(S(=O)(=O)c2ccc3nn(CCc4ccccc4)c(=O)n3c2)CC1,627
20,O=C(c1cc(F)ccc1F)N1CCN(C(=O)c2nnn3c2COC(c2ccccc2)C3)CC1 (centres undefined),817
21,O=S(=O)(Nc1ccc(Cn2cncn2)cc1)c1cccc(Cl)c1,716
22,COc1ccc(N2CC(c3nnc(NC(=O)c4ccc(Br)cc4)o3)CC2=O)cc1 (centres undefined),759
